Laboratory results reported in PMC6667648 (Frontiers in Microbiology, 2019).
≈ marks a conversion by molar mass, not a printed value. Where a SMILES comes first, the peptide text is derived from it. Bridges are numbered along the chain shown (N, C = ends).

Columns and labels:
C. albicans Y-6359 = assay type: cell-based; conditions: 24-h incubation, mean of 3 replicates from 2 independent experiments
Description: (§1) Strains were obtained from American Type Culture Collection (ATCC, Manassas, VA) or the clinical isolate collection at Trideum Biosciences (Frederick, MD, USA). Bioluminescence strains of P. aeruginosa 19660, transfected with the Xen5 luciferase gene, and S. aureus ATCC® 49525™ (Wright), transfected with the Xen36 luciferase gene, were obtained from Perkin Elmer (Hopkinton, MA).
(§2) A single colony was aseptically picked from an agar overlay and released in 25–30 mL of pre-warmed trypticase soy broth in a culture flask. Each culture was incubated overnight in a 37°C incubator. […] Pathogen growth was measured by absorbance at 600 nm. Four replicas were included for each test agent concentration. […]

C. albicans Y-326 = assay type: cell-based; conditions: 24-h incubation, mean of 3 replicates from 2 independent experiments
Description: as §1, §2

C. parapsilosis Y-1763 = test: microbe, parasite or virus in culture; assay type: cell-based; conditions: 24-h incubation, mean of 3 replicates from 2 independent experiments
Description: as §1, §2

E. cloacae 6053 = test: microbe, parasite or virus in culture; assay type: cell-based; conditions: 6053, 24 h
Description: as §1, §2

C. parapsilosis Y-1761 = test: microbe, parasite or virus in culture; assay type: cell-based; conditions: 24-h incubation, mean of 3 replicates from 2 independent experiments
Description: as §1, §2

E. cloacae 6054 = test: microbe, parasite or virus in culture; assay type: cell-based; conditions: 6054, 24 h
Description: as §1, §2

[1] = rat plasma, 40 and 750 ng/mL, storage at −80°C, thaw at ambient temperature min 1 h, six replicates, LC-MS/MS
S. aureus B-767 = test: microbe, parasite or virus in culture; assay type: cell-based, Staphylococcus aureus; conditions: B-767, 24 h
Description: as §1, §2

S. aureus 6061 = test: microbe, parasite or virus in culture; assay type: cell-based, Staphylococcus aureus; conditions: 6061, 24 h
Description: as §1, §2

MRSA 6313 = test: microbe, parasite or virus in culture; assay type: cell-based, Staphylococcus aureus; conditions: MRSA 6313; 24-h incubation; mean of 3 replicates from 2 independent experiments
Description: as §1, §2

MRSA 6381 = test: microbe, parasite or virus in culture; assay type: cell-based, Staphylococcus aureus; conditions: MRSA 6381; 24-h incubation; mean of 3 replicates from 2 independent experiments
Description: as §1, §2

MRSA ATCC 33592 = test: microbe, parasite or virus in culture; assay type: cell-based, Staphylococcus aureus; conditions: MRSA ATCC 33592; 24-h incubation; mean of 3 replicates from 2 independent experiments
Description: as §1, §2

[2] = test system: murine L929 fibroblast cells; test: Fibroblast cytotoxicity, bioluminescence; assay type: cell-based; conditions: 64 μg/mL (maximum concentration evaluated), 24 h incubation
Description: Non-invasive real-time evaluation of viability, mammalian, and bacterial cells, was performed using bioluminescent human keratinocytes (HaCaT, AddexBio, San Diego, CA) and murine L929 fibroblast cells (ATCC, Manassas, VA). The bioluminescent variants were constructed by transfection with a luciferase gene (RediFect Red-Fluc-Puromycin, Catalog #CL596002) (Hamblin et al., [2003]). […] Each concentration was performed in triplicate. Bioluminescence imaging was performed at pre-specified times (0, 15, and 30 min and 1, 3, 5, 8, and 24 h) and compared to concurrently run vehicle-controls. The 96-well plate was positioned on the stage (12.5-cm field of view) within the in vivo Imaging System (IVIS) imaging system (Caliper Life Sciences, Inc., Hopkinton, MA, USA), with an open emission filter, binning of 4, and f-stop 1, and a 1-min exposure time. The resultant photons emitted from the live cells were quantified using Living Image® software (version 4.3, Caliper Life Sciences, Inc.). Monitoring bioluminescence allows assessment of the kinetics of cellular viability as there is a tight correlation between photon count imaging and viable counts (Kadurugamuwa et al., [2003]).

[3] = statement in discussion
S. aureus ATCC 29213 = test: microbe, parasite or virus in culture; conditions: S. aureus ATCC 29213, serial passaging at sub-MIC, duplicate
Excerpt: (§3) The development of resistance was confirmed if the microorganism started growing at continuously higher concentrations. […] Evaluations were done in duplicate.

human red blood cells = test: Human hemolysis assay; assay type: cell-based; conditions: 30 min, 37°C, absorbance 540 nm, duplicate
Description: […]. Distilled water was used as a control for 100% hemolysis with the background level of absorbance being water only (Stasiuk et al., [2004]). The percent hemolysis was calculated as (test wellAbs – backgroundAbs) / (100% lysisAbs – backgroundAbs). Experiments were run in duplicate.

[4] = test system: 6 hr MRSA ATCC 1556 biofilm; assay type: cell-based, Staphylococcus aureus; conditions: preformed (6 h) MRSA biofilm, 16 h treatment, CFU count, three technical replicates
[5] = test system: clindamycin resistant S. aureus from passage 30
Excerpt: as §3

[6] = test system: Gentamicin resistant P. aeruginosa from passage 30; conditions: gentamicin resistant P. aeruginosa from passage 30 (gentamicin MIC 512 μg/mL)
Excerpt: as §3

[7] = pooled normal human serum, 200 μg/mL, 72 h, 37°C, LC-MS/MS, triplicate
A. baumannii ATCC 17978 = test: microbe, parasite or virus in culture; assay type: cell-based, Acinetobacter baumannii; conditions: A. baumannii ATCC 17978; 24-h incubation; mean of 3 replicates from 2 independent experiments
Description: as §1, §2

A. baumannii 6043 = test: microbe, parasite or virus in culture; assay type: cell-based, Acinetobacter baumannii; conditions: A. baumannii 6043; 24-h incubation; mean of 3 replicates from 2 independent experiments
Description: as §1, §2

A. baumannii 6838 = test: microbe, parasite or virus in culture; assay type: cell-based, Acinetobacter baumannii; conditions: 6838, 24 h
Description: as §1, §2

[8] = test system: P. aeruginosa P14 biofilm; assay type: cell-based, Pseudomonas aeruginosa; conditions: CFU count

CC[C@H](C)[C@@H]1NC(=O)CNC(=O)[C@H](CCCCN)NC(=O)[C@H](Cc2ccc(O)cc2)NC(=O)[C@@H]2CSSC[C@H](NC1=O)C(=O)N[C@@H](Cc1ccccc1)C(=O)N[C@@H](CCCCN)C(=O)N[C@@H](CCCCN)C(=O)N[C@H](C(=O)N[C@@H](CCCCN)C(N)=O)CSSC[C@H](NC(=O)[C@H](Cc1ccccc1)NC(=O)[C@@H](N)CCCNC(=N)N)C(=O)N[C@@H](Cc1c[nH]c3ccccc13)C(=O)N[C@@H](CCCCN)C(=O)N[C@@H](C(C)C)C(=O)N2 [RP557] (H-RFCWKVCYKGICFKKCK-NH2; disulfide 3-16, 7-12)
Minimum Inhibitory Concentration (MIC) (C. albicans Y-6359): 2.0 [4] μM | Minimum Inhibitory Concentration (MIC) (C. albicans Y-326): 8.0 [16] μM | Minimum Inhibitory Concentration (MIC) (C. parapsilosis Y-1763): 1.0 [2] μM | Minimum Inhibitory Concentration (MIC) (E. cloacae 6053): 4.0 [8] μM | Minimum Inhibitory Concentration (MIC) (C. parapsilosis Y-1761): 8.0 [16] μM | Minimum Inhibitory Concentration (MIC) (E. cloacae 6054): 4.0 [8] μM | Degradation after three freeze-thaw cycles [1]: did not show signs of degradation | Minimum Inhibitory Concentration (MIC) (S. aureus B-767): 2.0 [4] μM | Minimum Inhibitory Concentration (MIC) (S. aureus 6061): 4.0 [8] μM | Minimum Inhibitory Concentration (MIC) (MRSA 6313): 2.0 [4] μM | Minimum Inhibitory Concentration (MIC) (MRSA 6381): 2.0 [4] μM | Minimum Inhibitory Concentration (MIC) (MRSA ATCC 33592): 2.0 [4] μM | Fibroblast cell killing [2]: limited fibroblast cell killing | Water solubility [3]: water-soluble | MIC on Passage #0 and Passage #1 (S. aureus ATCC 29213): 2 µg/mL (≈ 0.936 µM) | MIC on Passage #30 (S. aureus ATCC 29213): 32 µg/mL (≈ 15 µM) | Minimum hemolytic concentration required to cause 10% hemolysis, MHC (human red blood cells): 128 µg/mL | EC90, biofilm CFU [4]: 6 µg/mL (≈ 2.81 µM) | MIC [5]: 2 µg/mL (≈ 0.936 µM) | MIC [6]: 4 µg/mL (≈ 1.87 µM) | Degradation in human serum [7]: did not degrade | Minimum Inhibitory Concentration (MIC) (A. baumannii ATCC 17978): 8.0 [16] μM | Minimum Inhibitory Concentration (MIC) (A. baumannii 6043): 4.0 [8] μM | Minimum Inhibitory Concentration (MIC) (A. baumannii 6838): 4.0 [8] μM | EC50, biofilm [8]: 32 µg/mL (≈ 15 µM)
